# Measurements reported in PubChem BioAssay AID179 (DTP/NCI, 2004).
# Activity calls are given as the source filed them.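 How the source made its calls: active means compounds giving half or more protection of infected cells from virus-caused growth loss, again on retest; inactive means the rest.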
# Tested on: CEM cells HIV-1 protection, formazan growth assay
# Assay: NCI AIDS Antiviral Assay
# Conditions: for IC50: measured here: growth of uninfected CEM cells
# How it was run: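 Screen of anti-HIV-1 activity in human CEM cells using a formazan-based growth measurement at five drug concentrations. Hits with 50% or greater protection were repeated, and confirmation required reproducible complete protection.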
SMILES,EC50,IC50,outcome
O=c1[nH]c(O)c(/C=N/C(=S)Nc2ccc(S(=O)(=O)Nc3nccs3)cc2)c(=O)[nH]1,> 200 µM,> 200 µM,–
CN(C)CCCOCCn1c2c(c3ccccc31)CCCC2,> 200 µM,32.4 µM,–
O=C(CC1(O)C(=O)Nc2c(Cl)cc(Cl)cc21)c1ccco1 (stereo not given),> 398 µM,83.2 µM,–
CN(C)c1cc2c3ccccc3ccc2c2ccccc12,> 7.41 µM,> 7.41 µM,–
CCOC(OC1=C(C#N)CCCC1)C(C)[Se]c1ccccc1 (stereo not given),> 20 µM,> 20 µM,–
CC(O)[C@@]1(c2ccccc2)CC2(CCN(C)CC2)O[C@H]1C (stereo not given in full),> 200 µM,> 200 µM,–
CN(/N=C/c1cccs1)c1ccc([N+](=O)[O-])cc1[N+](=O)[O-],> 200 µM,107 µM,–
S=C(Nc1ccc2cn[nH]c2c1)Nc1ccc2cn[nH]c2c1,> 309 µM,129 µM,–
CC1(C)CS(=O)(=O)CC(C)(C)C(=N/N)/C1=N\N,> 200 µM,> 200 µM,–
O=C(Nc1cc(C(=O)Nc2ccc(C3=NCCN3)cc2)cc(C2=NCCN2)c1)c1ccc(C(=O)Nc2cc(C(=O)Nc3ccc(C4=NCCN4)cc3)cc(C3=NCCN3)c2)cc1,5.37 µM,89.1 µM,–
c1ccc(-c2nnc(SCc3nc4ccccc4[nH]3)o2)cc1,> 200 µM,31.6 µM,–
C=CC1(C)CCC2C(=CCC3C(C)(COC4OC(CO)C(O)C(O)C4O)C(O)CCC23C)C1 (stereo not given),> 200 µM,> 100 µM,–
Cc1nn(C(=O)Cc2ccccc2)c2c1C(c1ccc(/C=C/c3ccccc3)cc1)SC(N)=N2 (stereo not given),148 µM,> 200 µM,–
O=C1CC(c2ccco2)C2(C(=O)CCCC2=O)C(c2ccco2)C1 (stereo not given),> 100 µM,> 100 µM,–
CCCC1=C(CC)C(C(=O)Nc2c(C)cccc2C)=NC(S)N1 (stereo not given),> 107 µM,> 107 µM,–
O=C(Cc1ccccc1)NC(=O)Nc1ccccc1,> 20.4 µM,> 20.4 µM,–
COc1cc(C(=O)O)c(C(=O)c2ccc(C#N)cc2)cc1OC,> 200 µM,> 200 µM,–
CCOP(=O)(OCC)/C(C#N)=C/c1cccc([N+](=O)[O-])c1,> 813 µM,166 µM,–
COc1ccc(C(SCC(N)C(=O)O)(c2ccc(OC)cc2)c2ccc(OC)cc2)cc1 (stereo not given),> 200 µM,31.6 µM,–
Clc1ccc(C2=CCN3CC=C(c4ccc(Cl)cc4)C23)cc1,> 200 µM,10.7 µM,–
CS(=O)(=O)c1cc([N+](=O)[O-])c(C(N)=O)cc1N(CCCl)CCCl,> 200 µM,> 200 µM,–

SMILES,EC50,IC50,outcome
CC(C)(C)c1ccc(-n2c3nc(=O)n(-c4ccccc4C(F)(F)F)c(=O)c-3cc3ccccc32)cc1,> 200 µM,15.8 µM,–
Cn1c(=O)c2/c(n(C)c1=O)=N\C=c1\c(=O)n(C)c(=O)n(C)\c1=N\C=2,> 182 µM,> 182 µM,–
CCN(CC)C(=O)Cn1c(-c2ccccc2)cc2ccccc21,> 200 µM,40.7 µM,–
Cc1cc(C)n(CCNCCn2nc(C)cc2C)n1,–,–,inactive
CC1CN(c2cc3c(cc2F)c(=O)c(C(=O)O)cn3-c2ccc(F)cn2)CC(C)N1 (stereo not given),> 200 µM,> 200 µM,–
O=C1OCOC1C1OCOC1=O (stereo not given),> 200 µM,19.1 µM,–
O=C(O)c1cccc(/C=C/c2ccc(N=Nc3c(O)cc(O)cc3C(=O)O)cc2C(=O)O)c1,> 200 µM,158 µM,–
CC(=O)OC(C(=O)[O][Sn]([CH3])([CH3])[CH3])c1ccccc1 (stereo not given),–,–,inactive
CNc1ccccc1S(=O)(=O)c1ccccc1[N+](=O)[O-],3.55 µM,47.9 µM,–
N#CN1CCC=C(c2cc3ccccc3[nH]2)C1,> 115 µM,60.3 µM,–
COC(=O)/C=C(/C(=O)OC)c1c(C)cc2c(C)cc(C)cc(C)c1-2,> 200 µM,10.7 µM,–
COC(=O)C1=CO[C@@H](C)[C@H]2CN3CC[C@]4(C(=O)Nc5ccccc54)[C@@H]3C[C@H]12,> 200 µM,> 200 µM,–
CCOC(C)C(/C=N/NC(N)=S)=NNC(N)=S (stereo not given),> 20 µM,1.86 µM,–
O=C1OC(=O)c2c1c(-c1ccccc1)cn2-c1ccc(Cl)cc1,–,–,inactive
COC(=O)C1C(=O)CC2C(C(=O)OC)C(=O)CC12 (stereo not given),> 234 µM,105 µM,–
CCC12CCC3CCCCC3(OO1)[C@@H](OC)O2 (stereo not given in full),> 51.3 µM,> 51.3 µM,–
O=C1c2ccccc2C2(c3ccc(Cl)cc3)N[C@@H]3CCCC[C@@H]3N12 (stereo not given in full),> 200 µM,> 200 µM,–
C=CCC(C(=N)C(C#N)(CC=C)C1=CCCCC1)C1=CCCCC1 (stereo not given),> 97.7 µM,81.3 µM,–
CCCNC(=O)C(C)(Cl)C(=O)c1ccccc1O (stereo not given),> 479 µM,209 µM,–
CC(=O)[O-].O=S(=O)(Nc1ncccn1)c1ccc(N=Cc2ccccc2O)cc1.O=S(=O)(Nc1ncccn1)c1ccc(N=Cc2ccccc2O)cc1.[Cu+2],> 200 µM,38 µM,–
CN1CN(c2ccccc2)C2(CCN(Cc3nc4ccccc4s3)CC2)C1=O,> 200 µM,30.9 µM,–

SMILES,EC50,IC50,outcome
Cn1cc(NC(=O)Nc2cc(C(=O)Nc3cc(C(=O)Nc4ccc5cc(S(=O)(=O)O)cc(S(=O)(=O)O)c5c4)n(C)n3)n(C)c2)cc1C(=O)Nc1cc(C(=O)Nc2ccc3cc(S(=O)(=O)O)cc(S(=O)(=O)O)c3c2)n(C)n1,5.5 µM,> 100 µM,–
CCOC(=O)C1(C#N)C(c2ccccc2)CC(O)(c2ccc(OC)cc2)C(C(=O)c2ccc(OC)cc2)C1c1ccccc1 (stereo not given),> 12.3 µM,> 12.3 µM,–
O=C1N=NC(=O)N1c1ccccc1,> 200 µM,> 200 µM,–
CC12CCCCC1CC(=O)/C(=C\O)C2 (stereo not given),> 200 µM,77.6 µM,–
O=C(O)C1=CC(=C(c2ccc(O)c(C(=O)O)c2)c2ccc(O)c(C(=O)O)c2)C=CC1=O,> 1660 µM,> 1660 µM,–
NC1=NC2(O)c3ccccc3C(=O)C2(O)N1 (stereo not given),> 45.7 µM,28.8 µM,–
OC12CC/C(=N/OCc3ccccc3)CC1c1ccccc12 (stereo not given),> 162 µM,148 µM,–
CNC(=O)c1ccc(C(=O)NCCCCCN(O)C(=O)CCC(=O)NCCCCCN(O)C(=O)CCC(=O)NCCCCCN(O)C(C)=O)c(O)c1O,> 100 µM,69.2 µM,–
COC(=O)c1c2c(c(-c3ccccc3)c3c1-c1nc(Cl)ccc1CC3)CCc1ccc(Cl)nc1-2,> 20.4 µM,> 20.4 µM,–
CC(C)(C)[Si](C)(C)OCC1OC(n2ccc(=O)[nH]c2=O)C(O[Si](C)(C)C(C)(C)C)C12OC2C(=O)NO (stereo not given),> 20 µM,1.45 µM,–
CCCCOC1CC2(c3ccc(OC)cc3)C(=O)c3ccccc3N2O1 (stereo not given),> 112 µM,24 µM,–
COc1c2ccoc2nc2c(OC)c(OCC(O)C(C)(C)O)ccc12 (stereo not given),> 513 µM,> 513 µM,–
O=S(=O)(SC1=NCCN1)c1cccc2ccccc12,> 81.3 µM,37.2 µM,–
COc1cccc2c1OC(=O)NC2O (stereo not given),–,–,inactive
Cc1cc(C)cc(N(C2C3CCC(C)(C2O)C3(C)C)S(=O)(=O)c2ccccc2)c1 (stereo not given),> 200 µM,24.5 µM,–
COC(=O)C1=C(C(=O)OC)C2(CCCCCC2=O)OC1=O (stereo not given),> 851 µM,45.7 µM,–
CCOC(=O)Nc1cc(C)c(NC(=O)CN(CC)CC)c(C)c1,> 200 µM,> 200 µM,–
NC(=S)N/C=C\c1nc2ccccc2[nH]c1=O,> 200 µM,> 200 µM,–
CC(C)(C)C(=O)OC(N)/C=C/c1ccccc1 (stereo not given),> 200 µM,> 200 µM,–
CCN(CC)CCNc1ccc(CO)c2oc3ccc(OS(=O)(=O)c4ccc(C)cc4)cc3c(=O)c12,> 51.3 µM,8.91 µM,–
O=C(NCCCOC(=O)CCCCCCCCC(=O)OCCCNC(=O)NC(=O)c1c[nH]c(=O)[nH]c1=O)NC(=O)c1c[nH]c(=O)[nH]c1=O,214 µM,263 µM,–

SMILES,EC50,IC50,outcome
O=C(O)CC[n+]1ccccc1,> 200 µM,> 200 µM,–
NNC(=O)C1C(O)CCC2CN3CCc4c([nH]c5ccccc45)C3CC21 (stereo not given),–,–,inactive
O=C1OC2(C(F)(F)F)Oc3ccccc3CN2C12CCCCC2 (stereo not given),> 200 µM,115 µM,–
Oc1ccc(Cl)cc1-c1nc2ccccc2s1,> 138 µM,75.9 µM,–
CCCCCCCCCC(=O)NC(Cc1ccc(O)cc1)C(=O)NCCCNCCCCNCCCNC(=O)[C@@H](N)CCCN=C(N)N (stereo not given in full),> 69.2 µM,58.9 µM,–
Clc1cc2nn(C3CCCCO3)nc2cc1Cl (stereo not given),> 200 µM,> 200 µM,–
COC(=O)C1=C(C(=O)OC)C2CCC1CC2=O (stereo not given),> 200 µM,44.7 µM,–
COc1ccc(/C=C2\CSC/C(=C\c3ccc(OC)c(OC)c3OC)C2=O)c(OC)c1OC,> 200 µM,15.5 µM,–
CC1(O)CC(=O)c2c(cc3ccc(-c4c5c(c(O)c6c(O)cccc46)C(=O)CC(C)(O)C5)c(O)c3c2O)C1 (stereo not given),> 200 µM,0.389 µM,–
Cc1ccc(SCC(CF)OCn2cnc3c(N)ncnc32)cc1 (stereo not given),> 200 µM,> 200 µM,–
CSC1SCC2C(=O)N(C)C(C(C)C)C(=O)OCC(NC(=O)c3cnc4ccccc4n3)C(=O)NC(C)C(=O)N(C)C1C(=O)N(C)C(C(C)C)C(=O)OCC(NC(=O)c1cnc3ccccc3n1)C(=O)NC(C)C(=O)N2C (stereo not given),> 0.12 µM,0.000355 µM,–
O=C1C2=C(CC3=C(C2)CS(=O)(=O)C3)C(=O)C2=C1CC1=C(C2)CS(=O)(=O)C1,> 200 µM,6.03 µM,–
CCOC(OCC)[C@@H]1C[C@@H]2N(O[C@H](OC3CCCC3(c3ccccc3)c3ccccc3)[C@H](OC(C)=O)[C@@]2(CC)Cc2ccc(OC)c(OC)c2)O1 (stereo not given in full),> 200 µM,> 200 µM,–
CC1NC(C)SC(C)S1 (stereo not given),> 200 µM,> 200 µM,–
Cc1nc2nn(C)cc2c(=O)n1/N=C/c1ccccc1,> 200 µM,> 200 µM,–
C=CCn1cc(C(=O)NC(=O)NCCCCCOC(=O)CCCCCCCCCCC(=O)OCCCCCNC(=O)NC(=O)c2cn(CC=C)c(=O)n(C)c2=O)c(=O)n(C)c1=O,> 5.75 µM,> 5.75 µM,–
O=c1ccnc(SSc2nccc(=O)[nH]2)[nH]1,> 200 µM,> 200 µM,–
CN(C)C(=C1c2cc([N+](=O)[O-])ccc2-c2ccc([N+](=O)[O-])cc21)N(C)C,> 200 µM,10.7 µM,–
O=C1C2N=NN(c3ccccc3)C2C(=O)N1c1ccccc1 (stereo not given),41.7 µM,> 200 µM,–
COc1ccc2c(c1OC)[C@]13CCCC[C@@H]1[C@H](C2)N(C)CC3,–,–,inactive
